{"source": "patent US9522908B2", "about": "“Ezrin inhibitors and methods of making and using” (Georgetown University, priority 2010, dated 2016)", "key": {"[1]": {"test_system": "zebrafish embryos", "test": "Zebrafish embryo development assay", "format": "in vivo, Zebrafish (Danio rerio)", "description": "Animals. Zebrafish (Danio rerio) were raised, maintained and crossed as described before (Westerfield, M. University of Oregon Press, Eugene. Or., 1993). Development of embryos was studied at 28° C. and staging was determined by morphological characteristics (Kimmel, C. B., et al., Dev. Dyn. 203, 253-310 (1995)).\nA translation blocking anti-ezrin morpholino oligonucleotide (MO), described and validated by Link et al. (Link, V., et al., J. Cell Sci., 119, 2073-2083 (2006)), MO1, 5′-[…] (SEQ ID NO:1), was synthesized by Gene-Tools, LCC (Philomath, Oreg.). MOs were microinjected into one to four cell stage embryos.\nZebrafish embryos were arrayed, three per well, in 96-well plates. Compounds were added at 1-33 μM concentrations. Embryos were observed, and photographed, at 70% epiboly, 24-28 hours post fertilization (hpf) and 48 hpf."}, "[2]": {"test_system": "low ezrin expressed K12 cells", "test": "Electric cell migration system, K12 cells", "format": "cell-based", "conditions": "non-toxic concentration", "description": "(§1) Anti-migration potential of the embodied compounds were validated using an electric cell migration system. High ezrin expressed K7M2 cells and low ezrin expressed K12 cells were treated with non-toxic concentrations of a compound and their corresponding anti-migration activity was measured. Data is represented as the ratio of compound K7M2 anti-migration activity divided by the K12 anti-migration activity. The X-axis details the non-toxic concentration of the compound used in the study."}, "[3]": {"test_system": "high ezrin expressed K7M2 cells", "test": "Electric cell migration system, K7M2 cells", "format": "cell-based", "conditions": "non-toxic concentration; compared to NSC 668394", "description": "as §1"}}}
{"compound": "5′-CGCGAACATTTACTGGTTTAGG (SEQ ID NO:1) (all phosphorodiamidate morpholino (PMO)) [MO1]", "values": [{"measurement": "embryos with epiboly defects at 90% epiboly stage", "setting": "[1]; 3 ng injected", "result": 42, "unit": "%"}, {"measurement": "embryos with epiboly defects at 90% epiboly stage", "setting": "[1]; 6 ng injected", "result": 69, "unit": "%"}, {"measurement": "embryos with epiboly defects at 90% epiboly stage", "setting": "[1]; 12 ng injected", "result": 69, "unit": "%"}]}
{"compound": "COc1ccc(CCNC2=CC(=O)c3cccnc3C2=O)cc1Cl", "note": "[GK2-057]", "values": [{"measurement": "effect on K12 cell line migration", "setting": "[2]", "result": "benign"}, {"measurement": "anti-migratory activity on K7M2 cells", "setting": "[3]", "result": "greater anti-migratory activity"}]}
